Laboratory results published in patent publication US4849410A, “Pseudopterosin and synthetic derivatives thereof” (The Regents of the University of California, priority 1987, dated 1989).

Experiments:
[1] = system: Phorbol Myristate Acetate (PMA) Induced Topical Inflammation of the Mouse Ear; experiment: Mouse Ear Anti-Inflammatory Assay (PMA, topical); type: in vivo; settings: for Mean Ear Weight ± S.E.: Table IV, in mg; for Anti-inflammatory Activity: summary
Procedure: a. Mouse Ear Anti-Inflammatory Assay
Test compound and phorbol myristate acetate (PMA) are topically applied simultaneously to the pinnae of the ears of mice. Three hours twenty minutes after application, mice are sacrificed, ears removed and standard sized bores taken. Edema (inflammation) is measured as the difference in weight between control and treated ears.
The vheicle or carrier for the compounds used in the inflammatory and analgesic assays was as follows; For the mouse ear inflammatory assay, the vehicle was acetone. Controls received 25 microliters of acetone. Test compounds were applied to the experimental animals in 25 microliter volumes. For the sperm motility and fertilized sea urchin egg assays, the compounds were dissolved in 10 microliters undenatured ethanol.

[2] = system: Intraperitoneally Administered Phenylquinone; experiment: Phenylquinone Assay for Analgesia (writhing); type: in vivo, mice; settings: for Mean Writhes per Animal / No. Writhes / % Change Relative to Control: 25 mg/kg; for No. Writhes: total of group; for % Change Relative to Control: writhes per animal; for Analgesic Activity: summary
Procedure: d. Phenylquinone Assay for Analgesia
Test compound is injected subcutaneously into mice. After 30 minutes, phenylquinone is injected intraperitoneally to cause pain as indicated by writhing.
Test compound was administered subcutaneously in sesame oil at concentrations up to 5 mg per ml depending on the test compound dosage protocol. The highest dose was 50 mg per Kg. Control groups received sesame oil subcutaneously.

[3] = system: P388 leukemia; experiment: Evaluation in mice bearing ip P388 leukemia; type: in vivo, female B6D2F1 mice
Procedure: Compound I was also evaluated in mice bearing P388 Leukemia as follows:
Compound I was administered to the mice as a solution by first dissolving it in N,N-dimethylacetamide, adding an equal volume of Cremophor EL and then 8 volumes of water. The drug concentration was such that the desired dose was delivered in a volume of 0.5 ml per mouse. Dilutions from the highest dose in a dose-response study were made by the addition of water so that organic component of the formulation decreased with dose reduction; the drug remained in solution.
10^6 P388 leukemia cells were implanted intraperitoneal in female B6D2F1 mice which were randomized to treatment groups of six animals each. Treatment was initiated 24 hours after tumor implantation and was continued daily for five days (Cisplatin was administered on Days 1 and 5 for the Group 1 mice). Mice were weighted as groups on Days 1, 5 and 9 to provide an indication of drug toxicity. Mice were monitored for survival daily for 45 days, and the median day of death was determined compared to three groups of untreated controls to provide percent increase in lifespan (ILS). ILS values of greater than or equal to 40 percent represent actual reduction in tumor cell burden during the course of treatment and are taken as indications of biologically significant antitumor effect.

[4] = system: M5076 reticulum cell sarcoma; experiment: Activity in mice bearing ip M5076 reticulum cell sarcoma; type: in vivo, female B6D2F1 mice
Procedure: (§1) Compound I was also evaluated for activity against solid tumors as follows:
(§2) One-half ml of a 10 percent (v:v) brei of tumor cells prepared from solid B16 melanoma or M5076 reticulum cell sarcoma was implanted ip in female B6D2F1 mice which were randomized to treatment groups of 8 animals each. Treatment was initiated 24 hours after tumer inoculation and was continued daily for 10 days (cisplatin was administered q4Dx4 on Days 1, 5, 9 and 13). Mice were monitored daily for 60 days, and the median day of death was determined compared to three groups of untreated controls to provide percent increase in lifespan (ILS). ILS values of greater than or equal to 50 percent represent biologically significant antitumor effects. Cisplatin was curative in M5076 with 6/8 tumor-free survivors on Day 60 at the top dose level.

[5] = system: B16 melanoma; experiment: Activity in mice bearing ip B16 melanoma; type: in vivo, female B6D2F1 mice
Procedure: as §1, §2

[6] = Group 2, cisplatin 1 mg/kg ip, Days 1-5
[7] = Group 2, cisplatin 2 mg/kg ip, Days 1-5
[8] = Group I, cisplatin 3 mg/kg ip, Days 1 and 5
[9] = Group I, cisplatin 6 mg/kg ip, Days 1 and 5

CC(=O)OC1C(O)COC(Oc2c(O)c(C)cc3c2C(C)CCC3C(C)CCC=C(C)C)C1O (stereo not shown) [Compound X]
Mean Ear Weight ± S.E. ([1]; 50.0 ug/ear): 10.64 ± 1.93 | Anti-inflammatory Activity [1]: Active

CC(=O)OC1=C(C)C2(O)C3=C(C1=O)C(C)CCC3C(C)CC2C=C(C)C (stereo not shown) [Compound XI]
Mean Writhes per Animal [2]: 12.3 | No. Writhes [2]: 37 | % Change Relative to Control [2]: +4%

COc1c(C)c2c3c(c1O)C(C)CCC3C(C)CC2C=C(C)C (stereo not shown) [Compound XII]
Mean Writhes per Animal [2]: 12.5 | No. Writhes [2]: 25 | % Change Relative to Control [2]: +6%

CC(=O)OC1COC(Oc2c(O)c(C)cc3c2C(C)CCC3C(C)CCC=C(C)C)C(O)C1O (stereo not shown) [Compound VIII]
Mean Ear Weight ± S.E. ([1]; 25.0 ug/ear): 13.93 ± 2.59 | Mean Ear Weight ± S.E. ([1]; 50.0 ug/ear): 12.07 ± 1.69 | Anti-inflammatory Activity [1]: Active | Analgesic Activity [2]: Active

N.N.[Cl][Pt][Cl] [Cisplatin, reference compound]
Increase to Lifespan [3, 6]: 75% | Median Survival Time [3, 6]: 17.5 days | Weight Change Day 5 [3, 6]: -0.2 gm | Weight Change Day 9 [3, 6]: +0.1 gm | Increase to Lifespan [3, 7]: 200% | Median Survival Time [3, 7]: 30 days | Weight Change Day 5 [3, 7]: -2.5 gm | Weight Change Day 9 [3, 7]: -0.9 gm | Increase to Lifespan [3, 8]: 127% | Median Survival Time [3, 8]: 25 days | Weight Change Day 5 [3, 8]: +0.3 gm | Weight Change Day 9 [3, 8]: +1.1 gm | Increase to Lifespan [3, 9]: 177% | Median Survival Time [3, 9]: 30.5 days | Weight Change Day 5 [3, 9]: -1.2 gm | Weight Change Day 9 [3, 9]: -1.1 gm | Increase to Lifespan ([4]; cisplatin 3 mg/kg ip): 121% | Median Survival Time ([4]; cisplatin 3 mg/kg ip): 46.5 days | Weight Change on Day 9 ([4]; cisplatin 3 mg/kg ip): +0.1 gm | Increase to Lifespan ([4]; cisplatin 5 mg/kg ip): > 200% | Median Survival Time ([4]; cisplatin 5 mg/kg ip): > 60 days | Weight Change on Day 9 ([4]; cisplatin 5 mg/kg ip): -1.6 gm | tumor-free survivors on Day 60 ([4]; top dose level of cisplatin): 6/8 | Increase to Lifespan ([5]; cisplatin 3 mg/kg ip): 36% | Median Survival Time ([5]; cisplatin 3 mg/kg ip): 30 days | Weight Change on Day 9 ([5]; cisplatin 3 mg/kg ip): +1.6 gm | Increase to Lifespan ([5]; cisplatin 6 mg/kg ip): 77% | Median Survival Time ([5]; cisplatin 6 mg/kg ip): 39 days | Weight Change on Day 9 ([5]; cisplatin 6 mg/kg ip): +0.5 gm

COc1ccc2c(c1)c(CC(=O)O)c(C)n2C(=O)c1ccc(Cl)cc1 [indomethacin, reference compound]
decrease in edema ([1]; 50 microgram): 50%

CC(C)=CCCC(C)C1CCC(C)c2c1cc(C)c(O)c2OC1OCC(O)C(O)C1O (stereo not shown) [Compound IX]
Mean Ear Weight ± S.E. ([1]; 25.0 ug/ear): 15.85 ± 2.51 | Mean Ear Weight ± S.E. ([1]; 50.0 ug/ear): 14.04 ± 2.38 | Anti-inflammatory Activity [1]: Active | Mean Writhes per Animal [2]: 6.8 | No. Writhes [2]: 68 | % Change Relative to Control [2]: -26% | Analgesic Activity [2]: Active
